Reference: patent publication US20260028354A1, “TETRAHYDRONAPHTHALENE DERIVATIVES AS ESTROGEN RECEPTOR DEGRADERS” (REGENT OF THE UNIVERSITY OF MICHIGAN, priority 2022, published 2026)

Test: Western blot analysis for "B" compounds
Format: cell-based
Details: read-out: Traditional Western Degradation Potency (DC50)
How it was run: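 Compound-treated cells lysed in RIPA buffer with protease inhibitors; equal protein (BCA) run on 10% SDS-PAGE, transferred to PVDF and probed with target antibodies. Band intensities quantified by densitometry and normalized to GAPDH.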

Row | Compound | DC50 [nM]
1 | O=C1CCC(N2C(=O)c3cc4c(cc3C2=O)CN(Cc2ccc(N3CC(Oc5ccc([C@@H]6c7ccc(O)cc7CC[C@@H]6c6ccccc6)cc5)C3)nc2)C4)C(=O)N1 (stereo partly drawn) [Compound B91, 2-(2,6-dioxopiperidin-3-yl)-6-((6-(3-(4-((1R,2S)-6-hydroxy-2-phenyl-1,2,3,4-tetrahydronaphthalen-1-yl)phenoxy)azetidin-1-yl)pyridin-3-yl)methyl)-6,7-dihydropyrrolo[3,4-f]isoindole-1,3(2H,5H)-dione] | 10 to 100
2 | O=C1CCC(N2C(=O)c3cc4c(cc3C2=O)CN(CCC(=O)NC2CCN(c3ccc([C@@H]5c6ccc(O)cc6CC[C@@H]5c5ccccc5)cc3)CC2)C4)C(=O)N1 (stereo partly drawn) [Compound B94, 3-(6-(2,6-dioxopiperidin-3-yl)-5,7-dioxo-3,5,6,7-tetrahydropyrrolo[3,4-f]isoindol-2(1H)-yl)-N-(1-(4-((1R,2S)-6-hydroxy-2-phenyl-1,2,3,4-tetrahydronaphthalen-1-yl)phenyl)piperidin-4-yl)propenamide] | > 100
3 | O=C1CCC(N2Cc3cc4c(cc3C2=O)CN(C(=O)C2CCC(N3CC(Oc5ccc([C@@H]6c7ccc(O)cc7CC[C@@H]6c6ccccc6)cc5)C3)CC2)C4)C(=O)N1 (stereo partly drawn) [Compound B107, 3-(6-((1S,4s)-4-(3-(4-((1R,2S)-6-hydroxy-2-phenyl-1,2,3,4-tetrahydronaphthalen-1-yl)phenoxy)azetidin-1-yl)cyclohexane-1-carbonyl)-1-oxo-3,5,6,7-tetrahydropyrrolo[3,4-f]isoindol-2(1H)-yl)piperidine-2,6-dione] | > 100
4 | CN(C1CCN(c2ccc([C@@H]3c4ccc(O)cc4CC[C@@H]3c3ccccc3)cc2)CC1)C1CC(C(=O)N2Cc3cc4c(cc3C2)C(=O)N(C2CCC(=O)NC2=O)C4=O)C1 (stereo partly drawn) [Compound B111, 2-(2,6-dioxopiperidin-3-yl)-6-(3-((1-(4-((1R,2S)-6-hydroxy-2-phenyl-1,2,3,4-tetrahydronaphthalen-1-yl)phenyl)piperidin-4-yl)(methyl)amino)cyclobutane-1-carbonyl)-6,7-dihydropyrrolo[3,4-f]isoindole-1,3(2H,5H)-dione] | > 100
5 | O=C1CCC(N2C(=O)c3cc4c(cc3C2=O)CN(CC(=O)N2CCC3(CC2)CCN(c2ccc([C@@H]5c6ccc7[nH]ncc7c6CC[C@@H]5c5ccccc5)cc2)CC3)C4)C(=O)N1 (stereo partly drawn) [Compound B139, 2-(2,6-dioxopiperidin-3-yl)-6-(2-oxo-2-(9-(4-((6R,7S)-7-phenyl-6,7,8,9-tetrahydro-3H-benzo[e]indazol-6-yl)phenyl)-3,9-diazaspiro[5.5]undecan-3-yl)ethyl)-6,7-dihydropyrrolo[3,4-f]isoindole-1,3(2H,5H)-dione] | 10 to 100
6 | 3-(6-((1R,4r)-4-(3-((4-((1R,2S)-6-hydroxy-2-phenyl-1,2,3,4- tetrahydronaphthalen-1-yl)phenyl)amino)azetidin-1- yl)cyclohexane-1-carbonyl)-1-oxo-3,5,6,7- tetrahydropyrrolo[3,4-f]isoindol-2(1H)-yl)piperidine-2,6-dione [Compound B115] | > 100
7 | CN(C1CCC(N2Cc3cc4c(cc3C2)C(=O)N(C2CCC(=O)NC2=O)C4=O)CC1)C1CCN(c2ccc([C@@H]3c4ccc(O)cc4CC[C@@H]3c3ccccc3)cc2)CC1 (stereo partly drawn) [Compound B88, 2-(2,6-dioxopiperidin-3-yl)-6-(4-((1-(4-((1R,2S)-6-hydroxy-2-phenyl-1,2,3,4-tetrahydronaphthalen-1-yl)phenyl)piperidin-4-yl)(methyl)amino)cyclohexyl)-6,7-dihydropyrrolo[3,4-f]isoindole-1,3(2H,5H)-dione] | > 100
8 | O=C1CCC(N2C(=O)c3cc4c(cc3C2=O)CN(Cc2ccc(N3CCN(c5ccc([C@@H]6c7ccc(O)cc7CC[C@@H]6c6ccccc6)cc5)CC3)nc2)C4)C(=O)N1 (stereo partly drawn) [Compound B282, 2-(2,6-dioxopiperidin-3-yl)-6-((6-(4-(4-((1R,2S)-6-hydroxy-2-phenyl-1,2,3,4-tetrahydronaphthalen-1-yl)phenyl)piperazin-1-yl)pyridin-3-yl)methyl)-6,7-dihydropyrrolo[3,4-f]isoindole-1,3(2H,5H)-dione] | > 100
9 | O=C1CCC(N2C(=O)c3cc4c(cc3C2=O)CN(CC(=O)N2CCC3(CC2)CCN(c2ccc([C@@H]5c6ccc(O)cc6CC[C@@H]5c5ccccc5)cc2)CC3)CC4)C(=O)N1 (mixture of isomers) [Compound B191, 2-(2,6-dioxopiperidin-3-yl)-6-(2-(9-(4-((1R,2S)-6-hydroxy-2-phenyl-1,2,3,4-tetrahydronaphthalen-1-yl)phenyl)-3,9-diazaspiro[5.5]undecan-3-yl)-2-oxoethyl)-5,6,7,8-tetrahydro-1H-pyrrolo[3,4-g]isoquinoline-1,3(2H)-dione] | 10 to 100
10 | O=C1CCC(N2C(=O)c3cc4c(cc3C2=O)CN(C(=O)[C@H]2CC[C@H](N3CC(Oc5ccc([C@@H]6c7ccc(O)cc7CC[C@@H]6c6ccccc6)cc5)C3)CC2)C4)C(=O)N1 (stereo partly drawn) [Compound B127, 2-(2,6-dioxopiperidin-3-yl)-6-((1S,4r)-4-(3-(4-((1R,2S)-6-hydroxy-2-phenyl-1,2,3,4-tetrahydronaphthalen-1-yl)phenoxy)azetidin-1-yl)cyclohexane-1-carbonyl)-6,7-dihydropyrrolo[3,4-f]isoindole-1,3(2H,5H)-dione] | > 100

Next, values leading:

Row | DC50 [nM] | Compound
11 | > 100 | O=C1CCC(N2Cc3cc4c(cc3C2=O)CN(CC2CN(CC3CCN(c5ccc([C@@H]6c7ccc(O)cc7CC[C@@H]6c6ccccc6)cc5)CC3)C2)C4=O)C(=O)N1 (stereo partly drawn) [Compound B301, 2-(2,6-dioxopiperidin-3-yl)-6-((1-((1-(4-((1R,2S)-6-hydroxy-2-phenyl-1,2,3,4-tetrahydronaphthalen-1-yl)phenyl)piperidin-4-yl)methyl)azetidin-3-yl)methyl)-2,3,6,7-tetrahydropyrrolo[3,4-f]isoindole-1,5-dione]
12 | > 100 | O=C1CCC(N2Cc3cc4c(cc3C2=O)CN(CC2CCN(c3ccc([C@@H]5c6ccc(O)cc6CC[C@@H]5c5ccccc5)cc3)CC2)C4)C(=O)N1 (mixture of isomers) [Compound B1, 3-(6-((1-(4-((1R,2S)-6-hydroxy-2-phenyl-1,2,3,4-tetrahydronaphthalen-1-yl)phenyl)piperidin-4-yl)methyl)-1-oxo-3,5,6,7-tetrahydropyrrolo[3,4-f]isoindol-2(1H)-yl)piperidine-2,6-dione]
13 | > 100 | O=C1CCC(N2C(=O)c3cc4c(cc3C2=O)CN(CC2CCN(C(=O)C3(F)CN(c5ccc([C@@H]6c7ccc(O)cc7CC[C@@H]6c6ccccc6)cc5)C3)CC2)C4)C(=O)N1 (stereo partly drawn) [Compound B266, 2-(2,6-dioxopiperidin-3-yl)-6-((1-(3-fluoro-1-(4-((1R,2S)-6-hydroxy-2-phenyl-1,2,3,4-tetrahydronaphthalen-1-yl)phenyl)azetidine-3-carbonyl)piperidin-4-yl)methyl)-6,7-dihydropyrrolo[3,4-f]isoindolc-1,3(2H,5H)-dionc]
14 | 10 to 100 | CN1C[C@@H]2CN(CC3CCN(c4ccc([C@@H]5c6ccc(O)cc6CC[C@@H]5c5ccccc5)cc4)CC3)CCN2c2cc3c(cc21)C(=O)N(C1CCC(=O)NC1=O)C3 (stereo partly drawn) [Compound B137, 3-((S)-3-((1-(4-((1R,2S)-6-hydroxy-2-phenyl-1,2,3,4-tetrahydronaphthalen-1-yl)phenyl)piperidin-4-yl)methyl)-6-methyl-8-oxo-2,3,4,4a,5,6,8,10-octahydropyrazino[1,2-a]pyrrolo[3,4-g]quinoxalin-9(1H)-yl)piperidine-2,6-dione]
